The record followed here is EP1428520A2, “Lipase inhibitors in deodorants and antiperspirants” (Henkel Kommanditgesellschaft auf Aktien, priority 2002, dated 2004).

The test concerns Lipase (Fa. Sigma) aus Pseudomonas species. The test is described as follows: In vitro lipase inhibition test (Lipase Color Liquid assay, photometric release of methylresorufin). Type of test: biochemical. Conditions: 37°C, pH 8.4, activity without inhibitor = 100%. The text has this:
Die hemmende Wirkung der Enzym-Inhibitoren wurde in vitro an einem geeigneten Modellenzym nachgewiesen. Da eine hautrelevante Lipase nicht zur Verfügung stand, diente die Lipase (Fa. Sigma) aus Pseudomonas species als Modellenzym, um die Hemmwirkung der erfindungsgemäß verwendeten Inhibitoren zu testen. Als Referenz diente Hinokitiol.
Der Nachweis der Lipase-Enzymaktivität erfolgt analog zu den Angaben im Lipase Color Liquid Autom ―Datenblatt der Fa. Sentinel. Hierbei wird die Lipase-katalysierte Spaltung von 1,2-O-dilauryl-rac-glycero-3-glutarsäure-(6'-methylresorufin)-ester in Glutarsäure und Methylresorufin bestimmt. Die Freisetzung des Methylresorufin verursacht eine Purpurfärbung (λ = 580 nm), deren Bildung photometrisch verfolgt wird. [drawing 4]
Der Assay wurde nach Herstellerangaben (37°C, Gesamtvolumen 1.21 ml) durchgeführt und enthielt: 37 mM Tris-Puffer (pH 8.4), 1,6 mM Desoxycholat, 6.6 mM Taurodesoxycholat, 0.9 mg/l Colipase, 1.5 mM Tartrat, 0.1 mM CaCl2 und 0.24 mM 1,2-O-dilauryl-rac-glycero-3-glutaric acid-(6'-methylresorufin)-ester (Substrat). Die Reaktion wurde mit 0.005 U Lipase (10 µl) gestartet und nach einer Inkubation von einer Minute die Zunahme der Absorption bei […] über 2 min verfolgt. Der lineare Anstieg der Absorption (A) pro Zeiteinheit (t) war hierbei ein Maß für die Aktivität des Enzyms (ΔA/Δt). Die Aktivität des Enzyms in Abwesenheit eines Inhibitors, (ΔA1/Δt1 ), wurde als Referenz gleich 100% gesetzt. Unter analogen Bedingungen wurden die Aktivitäten in Gegenwart eines Inhibitors (ΔA2/Δt2) bestimmt. Die Hemmwirkung des Inhibitors bzw. die Minderung der Enzymaktivität entspricht dann: 100% - (ΔA2/Δt2 )/( ΔA1/Δt1 )%.

On to `CCCCCCCCCCCC(=O)NC(CCC(=O)O)C(=O)O` (stereo not drawn) [Protelan AGL95PV, Natriumlauroylglutamat], for which the “Hemmwirkung (Minderung der Lipase-Aktivität)” value by setting is: (inhibitor concentration 0,01 % (v/v)) 29%; (inhibitor concentration 0,1 % (v/v)) 56%; (inhibitor concentration 1 % (v/v)) 85%.
